Data taken from PubChem BioAssay AID2060510 (Molecular Pharmacology Branch, DTP, NCI, 2025).

System: 439559-082-T-J2-PDC spheroids viability
Test: Anticancer human tumor 439559-082-T-J2-PDC patient-derived colon adenocarcinoma cell line growth inhibition [GQUAD]
Conditions: for IC50: curve of first compound; for viability, T/C: stronger effect = lower value; active = viability on the fitted dose curve at most 10% of control; inactive = the rest
Outline: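 Multi-cell-type spheroids of tumor cells with HUVEC and mesenchymal stem cells, treated with drug combinations. Concentrations descend in half-log steps from near clinical Cmax, or from 10 microM where Cmax is unknown; viability read-out.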

[1] = second compound 0.0316 µM, first compound 0.0316 µM
[2] = second compound 0.0316 µM, first compound 0.316 µM
[3] = second compound 0.1 µM, first compound 0.0316 µM
[4] = second compound 0.1 µM, first compound 0.316 µM
[5] = second compound 0.316 µM, first compound 0.0316 µM
[6] = second compound 0.316 µM, first compound 0.316 µM
[7] = second compound 1 µM, first compound 0.0316 µM
[8] = second compound 1 µM, first compound 0.316 µM
[9] = second compound 3.16 µM, first compound 0.0316 µM
[10] = second compound 3.16 µM, first compound 0.316 µM
[11] = second compound 10 µM, first compound 0.0316 µM
[12] = second compound 10 µM, first compound 0.316 µM
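Also: spheroids exposed to the agents for 7 days before readout.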
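For viability, T/C in this document: percent of luminescence signal in DMSO vehicle wells taken as 100% viability.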

CCCS(=O)(=O)Nc1ccc(F)c(C(=O)c2c[nH]c3ncc(-c4ccc(Cl)cc4)cc23)c1F + Cc1cnc(CNC(=O)c2c(=O)c3ccc(N4CCCN(C)CC4)nc3n3c2sc2ccccc23)cn1
> 10 µM: IC50 (second compound 0.0316 µM) | IC50 (second compound 0.1 µM) | IC50 (second compound 0.316 µM)
active: viability, T/C (second compound 10 µM, first compound 10 µM) 5.82%
3.76 µM: IC50 (second compound 10 µM)
inactive: viability, T/C [1] 97.5% | viability, T/C (second compound 0.0316 µM, first compound 0.1 µM) 103% | viability, T/C [2] 103% | viability, T/C (second compound 0.0316 µM, first compound 1 µM) 101% | viability, T/C (second compound 0.0316 µM, first compound 3.16 µM) 101% | viability, T/C (second compound 0.0316 µM, first compound 10 µM) 77.1% | viability, T/C [3] 96.9% | viability, T/C (second compound 0.1 µM, first compound 0.1 µM) 99.5% | viability, T/C [4] 99.7% | viability, T/C (second compound 0.1 µM, first compound 1 µM) 99.3% | viability, T/C (second compound 0.1 µM, first compound 3.16 µM) 99.1% | viability, T/C (second compound 0.1 µM, first compound 10 µM) 53.2% | viability, T/C [5] 84.4% | viability, T/C (second compound 0.316 µM, first compound 0.1 µM) 89.7% | viability, T/C [6] 90% | viability, T/C (second compound 0.316 µM, first compound 1 µM) 86.1% | viability, T/C (second compound 0.316 µM, first compound 3.16 µM) 88.1% | viability, T/C (second compound 0.316 µM, first compound 10 µM) 54% | viability, T/C [7] 78.4% | viability, T/C (second compound 1 µM, first compound 0.1 µM) 78.5% | viability, T/C [8] 78% | viability, T/C (second compound 1 µM, first compound 1 µM) 78.2% | viability, T/C (second compound 1 µM, first compound 3.16 µM) 83.8% | viability, T/C (second compound 1 µM, first compound 10 µM) 48.9% | viability, T/C [9] 70.9% | viability, T/C (second compound 3.16 µM, first compound 0.1 µM) 71.5% | viability, T/C [10] 70.8% | viability, T/C (second compound 3.16 µM, first compound 1 µM) 63.5% | viability, T/C (second compound 3.16 µM, first compound 3.16 µM) 68.1% | viability, T/C (second compound 3.16 µM, first compound 10 µM) 39.7% | viability, T/C [11] 60.8% | viability, T/C (second compound 10 µM, first compound 0.1 µM) 58.6% | viability, T/C [12] 70.2% | viability, T/C (second compound 10 µM, first compound 1 µM) 64.5% | viability, T/C (second compound 10 µM, first compound 3.16 µM) 57.5%
9.59 µM: IC50 (second compound 1 µM)
6.53 µM: IC50 (second compound 3.16 µM)

CC[C@@]1(O)C(=O)OCc2c1cc1n(c2=O)Cc2cc3c(CN(C)C)c(O)ccc3nc2-1 + Cc1cnc(CNC(=O)c2c(=O)c3ccc(N4CCCN(C)CC4)nc3n3c2sc2ccccc23)cn1
inactive: viability, T/C (second compound 0.0316 µM, first compound 0.000999 µM) 98.9% | viability, T/C (second compound 0.0316 µM, first compound 0.00316 µM) 89.6% | viability, T/C (second compound 0.0316 µM, first compound 0.00999 µM) 94.6% | viability, T/C [1] 88.7% | viability, T/C (second compound 0.0316 µM, first compound 0.0999 µM) 82.4% | viability, T/C [2] 81.9% | viability, T/C (second compound 0.1 µM, first compound 0.000999 µM) 91.7% | viability, T/C (second compound 0.1 µM, first compound 0.00316 µM) 81.5% | viability, T/C (second compound 0.1 µM, first compound 0.00999 µM) 96.5% | viability, T/C [3] 95.8% | viability, T/C (second compound 0.1 µM, first compound 0.0999 µM) 83% | viability, T/C [4] 81.8% | viability, T/C (second compound 0.316 µM, first compound 0.000999 µM) 79.7% | viability, T/C (second compound 0.316 µM, first compound 0.00316 µM) 85.2% | viability, T/C (second compound 0.316 µM, first compound 0.00999 µM) 79.5% | viability, T/C [5] 75.8% | viability, T/C (second compound 0.316 µM, first compound 0.0999 µM) 83.4% | viability, T/C [6] 69% | viability, T/C (second compound 1 µM, first compound 0.000999 µM) 73.5% | viability, T/C (second compound 1 µM, first compound 0.00316 µM) 70.3% | viability, T/C (second compound 1 µM, first compound 0.00999 µM) 74.5% | viability, T/C [7] 79.1% | viability, T/C (second compound 1 µM, first compound 0.0999 µM) 80% | viability, T/C [8] 67.4% | viability, T/C (second compound 3.16 µM, first compound 0.000999 µM) 71.5% | viability, T/C (second compound 3.16 µM, first compound 0.00316 µM) 72% | viability, T/C (second compound 3.16 µM, first compound 0.00999 µM) 68.6% | viability, T/C [9] 71.4% | viability, T/C (second compound 3.16 µM, first compound 0.0999 µM) 72.8% | viability, T/C [10] 66.9% | viability, T/C (second compound 10 µM, first compound 0.000999 µM) 64.3% | viability, T/C (second compound 10 µM, first compound 0.00316 µM) 71.8% | viability, T/C (second compound 10 µM, first compound 0.00999 µM) 66.6% | viability, T/C [11] 70.7% | viability, T/C (second compound 10 µM, first compound 0.0999 µM) 66.4% | viability, T/C [12] 61.1%
> 0.316 µM: IC50 (second compound 0.0316 µM) | IC50 (second compound 0.1 µM) | IC50 (second compound 0.316 µM) | IC50 (second compound 1 µM) | IC50 (second compound 3.16 µM) | IC50 (second compound 10 µM)
